Measured values from patent US11331020B2 (TRUSTEES OF BOSTON UNIVERSITY, priority 2020, dated 2022).
Read-outs that look alike come from different tables or passages of the source.

Legend:
NicA2 [1] = biological target: T1, NicA2 (Pseudomonas putida, UniProt F8G0P2, N462Y/W427Y); type: biochemical, Pseudomonas putida S16; conditions: FIG. 17C (N462Y/W427Y mutant), FIG. 10D
T1 construct: poly-histidine; made in house; host or cells: E. coli BL21 (DE3)
Experimental: (§1) Chronoamperometric responses were recorded overtime, with a potential −0.2 V (versus Ag/AgCl). At the beginning of the experiment, 30 μL 1×DPBS was added to the biosensor, followed by an addition of 30 μL nicotine solution at predefined time point. To evaluate the selectivity of the sensor chronoamperometric responses to nicotine were measured in the presence of the common interferents at relevant physiological concentrations in sweat (see e.g., Table 4). Addition of 30 μL 200 μM nicotine solution to 30 μL mixture was performed at a predefined time point and the current was recorded over time. Similar experiments were performed to evaluate the selectivity of the sensor to cotinine. Current was recorded where 30 μL 200 μM nicotine solution was added to 30 μL cotinine solutions.
(§2) Chronoamperometric responses were recorded at −0.2 V vs. a Ag/AgCl reference electrode.

NicA2 [2] = biological target: T2, NicA2 (Pseudomonas putida, UniProt F8G0P2); type: biochemical, Pseudomonas putida S16; conditions: for effect on the response to nicotine: 200 μM nicotine solution added
T2 construct: poly-histidine; made in house; host or cells: E. coli BL21 (DE3)
T2 sequence (F8G0P2 39-482): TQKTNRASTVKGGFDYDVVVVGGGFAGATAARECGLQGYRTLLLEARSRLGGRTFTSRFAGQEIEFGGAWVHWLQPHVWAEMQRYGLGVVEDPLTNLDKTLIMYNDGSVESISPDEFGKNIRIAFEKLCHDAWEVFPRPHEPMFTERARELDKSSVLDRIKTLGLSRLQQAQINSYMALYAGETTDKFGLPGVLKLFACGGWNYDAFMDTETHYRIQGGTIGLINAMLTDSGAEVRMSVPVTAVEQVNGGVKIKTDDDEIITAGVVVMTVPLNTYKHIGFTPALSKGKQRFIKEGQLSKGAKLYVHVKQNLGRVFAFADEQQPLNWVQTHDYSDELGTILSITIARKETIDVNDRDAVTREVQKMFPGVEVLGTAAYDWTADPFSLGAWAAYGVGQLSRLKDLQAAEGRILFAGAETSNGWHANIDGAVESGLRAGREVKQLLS
Experimental: as §1, §2

[3] = Activity of NicA2 mutants versus wild type NicA2; type: biochemical; conditions: compared to wild type and other NicA2 mutants
Source text: In some embodiments, the size of the working electrode is in the range of 5-8 π mm^2, or 8-10π mm^2, or 10-12π mm^2, or 12-15π mm^2, or greater than 15π mm^2.

**Q.** Which “current produced by NicA2 with the analyte” value (NicA2 [1]) does the source give for `CN1C(=O)CC[C@H]1c1cccnc1` [cotinine] here?
**A.** did not produce a current

**Q.** What about the “effect on the response to nicotine” value (NicA2 [2]; chronoamperometry) of the same molecule?
**A.** minimally affected the nicotine response

**Q.** What about the “effect on the response to nicotine” value (NicA2 [2]; chronoamperometry, listed as Cotinine) of the same molecule?
**A.** minimal effect upon the nicotine response

**Q.** Which reduction of signal (NicA2 [2]; added during a chronoamperometric experiment with nicotine) does the source give for `c1cncc(C2=NCCC2)c1` [myosmine] here?
**A.** approximately 50%

**Q.** And the “response from the substance alone” value (NicA2 [2]; chronoamperometry, no nicotine)?
**A.** Minimal responses

B1: N462Y/W427Y: mutant NicA2 enzyme, SEQ ID NO: 4 (protein)
chain: MSDKTKTNEGFSRRSFIGSAAVVTAGVAGLGAIDAASATQKTNRASTVKGGFDYDVVVVGGGFAGATAARECGLQGYRTLLLEARSRLGGRTFTSRFAGQEIEFGGAWVHWLQPHVWAEMQRYGLGVVEDPLTNLDKTLIMYNDGSVESISPDEFGKNIRIAFEKLCHDAWEVFPRPHEPMFTERARELDKSSVLDRIKTLGLSRLQQAQINSYMALYAGETTDKFGLPGVLKLFACGGWNYDAFMDTETHYRIQGGTIGLINAMLTDSGAEVRMSVPVTAVEQVNGGVKIKTDDDEIITAGVVVMTVPLNTYKHIGFTPALSKGKQRFIKEGQLSKGAKLYVHVKQNLGRVFAFADEQQPLNWVQTHDYSDELGTILSITIARKETIDVNDRDAVTREVQKMFPGVEVLGTAAYDWTADPFSLGAYAAYGVGQLSRLKDLQAAEGRILFAGAETSNGWHAYIDGAVESGLRAGREVKQLLSLEHHHHHH
**Q.** With B1 as the molecule, how does the “oxidation activity of NicA2 mutant” value [3] read?
**A.** increased oxidative activity
